Laboratory results taken from ChEMBL document CHEMBL1156351, “A new isoquinoline alkaloid from the marine sponge Haliclona species” (J Nat Prod, 2001).
In brackets after ≈: the same amount, converted by molar mass. Activity calls are given as the source filed them. The rule behind the calls is not given here.

What was measured:
Assay type in all cases: functional, cell-based
LOX = assay: Cytotoxicity against human LOX cells at 50 ug/mL after 2 days by XTT assay
OVCAR-3 [1] = assay: Cytotoxicity against human OVCAR-3 cells at 50 ug/mL after 2 days by XTT assay
[2] = Cytotoxicity against human LOX cells after 2 days by XTT assay; settings: 48 h
OVCAR-3 [3] = assay: Cytotoxicity against human OVCAR-3 cells after 2 days by XTT assay; settings: OVCAR-3, 48 h

Row | Structure (SMILES) | Activity (LOX) | Activity (OVCAR-3 [1]) | IC50 [2] | IC50 (OVCAR-3 [3])
1 | COc1cc2c(CO)nccc2cc1O | inactive | inactive |  | 
2 | COC1=C(C)C(=O)c2cc(=O)n(C)c(C)c2C1=O [MIMOSAMYCIN] |  |  | 10 µg/mL (≈ 40.4 µM) | 10 µg/mL (≈ 40.4 µM)
